Data published in article PMC10709440, “High-throughput ligand profile characterization in novel cell lines expressing seven heterologous insect olfactory receptors for the detection of volatile plant biomarkers” (Scientific Reports, 2023).
Like-named read-outs stand apart in the source and are kept apart here.

Assays:
Drosophila OR10a = target: T1, Drosophila OR10a (Drosophila melanogaster, UniProt Q9VYZ1); experiment: Calcium ion fluorescence (GCaMP6) assay, OR10a stable HEK293 cell line; type: cell-based; settings: for DF norm AVERAGE OR10a: threshold 0.05, below shown as 0
T1 construct: expressed in transfected cells
T1 sequence (Q9VYZ1 1-406): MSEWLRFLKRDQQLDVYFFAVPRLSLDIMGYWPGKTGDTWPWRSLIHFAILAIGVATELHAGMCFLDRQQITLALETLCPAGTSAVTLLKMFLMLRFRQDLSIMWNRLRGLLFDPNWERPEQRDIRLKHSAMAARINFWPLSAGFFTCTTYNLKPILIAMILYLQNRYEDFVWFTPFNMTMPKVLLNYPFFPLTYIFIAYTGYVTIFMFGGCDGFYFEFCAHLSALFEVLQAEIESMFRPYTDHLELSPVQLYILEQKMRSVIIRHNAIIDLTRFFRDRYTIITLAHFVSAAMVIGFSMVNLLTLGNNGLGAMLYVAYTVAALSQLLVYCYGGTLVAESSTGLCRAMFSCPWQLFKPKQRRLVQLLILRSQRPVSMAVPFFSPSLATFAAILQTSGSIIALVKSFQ
T1 sequence (Q9VNB5 1-486 partner): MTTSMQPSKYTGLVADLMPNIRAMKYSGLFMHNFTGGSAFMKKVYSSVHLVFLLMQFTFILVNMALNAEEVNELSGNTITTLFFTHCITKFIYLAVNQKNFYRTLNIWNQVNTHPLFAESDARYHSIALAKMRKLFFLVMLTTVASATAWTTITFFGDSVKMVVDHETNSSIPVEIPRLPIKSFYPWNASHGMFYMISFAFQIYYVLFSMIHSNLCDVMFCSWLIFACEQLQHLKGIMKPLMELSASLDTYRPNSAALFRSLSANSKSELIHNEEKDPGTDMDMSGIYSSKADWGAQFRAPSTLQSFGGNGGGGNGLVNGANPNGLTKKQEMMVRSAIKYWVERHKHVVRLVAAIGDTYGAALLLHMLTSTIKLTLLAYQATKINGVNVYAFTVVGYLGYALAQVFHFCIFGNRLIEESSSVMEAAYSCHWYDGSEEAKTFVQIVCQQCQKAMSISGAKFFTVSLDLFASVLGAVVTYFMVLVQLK
How it was run: (§1)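 HEK293 lines stably expressing each Drosophila OR with GCaMP6, doxycycline-induced (1 μg/mL) 48 or 72 h. Fluorescence recorded 5 s baseline then 30 s after VOC injection at pH 7.3; ΔF=(FMAX−F0)/F0, normalized to 50 µM VUAA1 response per line, triplicate wells averaged; concentration series 0.01–100 μM.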

Drosophila OR13a = target: T2, Drosophila OR13a (Drosophila melanogaster, UniProt Q9VXL0); experiment: Calcium ion fluorescence (GCaMP6) assay, OR13a stable HEK293 cell line; type: cell-based; settings: for DF norm AVERAGE OR13a: threshold 0.05, below shown as 0
T2 construct: expressed in transfected cells
T2 sequence (Q9VXL0 1-418): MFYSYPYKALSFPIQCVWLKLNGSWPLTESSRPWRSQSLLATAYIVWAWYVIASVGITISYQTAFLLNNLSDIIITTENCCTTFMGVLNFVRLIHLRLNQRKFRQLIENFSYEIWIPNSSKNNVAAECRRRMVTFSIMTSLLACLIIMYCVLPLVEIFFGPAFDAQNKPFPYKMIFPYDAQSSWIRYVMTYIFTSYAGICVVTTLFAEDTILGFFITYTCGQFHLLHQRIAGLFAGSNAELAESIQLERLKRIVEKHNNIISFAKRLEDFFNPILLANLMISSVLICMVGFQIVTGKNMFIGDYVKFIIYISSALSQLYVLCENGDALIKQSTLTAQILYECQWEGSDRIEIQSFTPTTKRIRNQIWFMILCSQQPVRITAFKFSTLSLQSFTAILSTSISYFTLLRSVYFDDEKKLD
T2 sequence (Q9VNB5 1-486 partner): T1 sequence (Q9VNB5 1-486 partner)
How it was run: as §1

[1] = ligand concentration 1 (unit not given)
[2] = ligand concentration 10 (unit not given)
[3] = ligand concentration 100 (unit not given)
[4] = 1 μM VOC, 50 μM VUAA1 = 1, responses not exceeding 0.05 considered 0
[5] = 10 μM VOC, 50 μM VUAA1 = 1, responses not exceeding 0.05 considered 0
[6] = 100 μM VOC, 50 μM VUAA1 = 1, responses not exceeding 0.05 considered 0

CC(=O)OCCC(C)C [isopentyl acetate]
activation at 1 µM (Drosophila OR10a; HEK293, 1 μM VOC, 50 μM VUAA1 = 1, responses not exceeding 0.05 considered 0, read-out: OR10a Average response (VUAA1-normalized)): 9%
activation at 10 µM (Drosophila OR10a; HEK293, 10 μM VOC, 50 μM VUAA1 = 1, responses not exceeding 0.05 considered 0, read-out: OR10a Average response (VUAA1-normalized)): 19%
activation at 100 µM (Drosophila OR10a; HEK293, 100 μM VOC, 50 μM VUAA1 = 1, responses not exceeding 0.05 considered 0, read-out: OR10a Average response (VUAA1-normalized)): 10%
activation at 1 µM (Drosophila OR10a; HEK293, read-out: OR10a response (VUAA1-normalized response), VOC concentration 1 μM): 9%
activation at 10 µM (Drosophila OR10a; HEK293, read-out: OR10a response (VUAA1-normalized response), VOC concentration 10 μM): 19%
activation at 100 µM (Drosophila OR10a; HEK293, read-out: OR10a response (VUAA1-normalized response), VOC concentration 100 μM): 10%
DF norm AVERAGE OR10a (Drosophila OR10a; [1]): 0.08825
DF norm AVERAGE OR10a (Drosophila OR10a; [2]): 0.1921
DF norm AVERAGE OR10a (Drosophila OR10a; [3]): 0.101
activation at 1 µM (Drosophila OR13a; HEK293, read-out: OR13a Average response (VUAA1-normalized), 1 μM VOC, 50 μM VUAA1 = 1, responses not exceeding 0.05 considered 0): 3%
activation at 10 µM (Drosophila OR13a; HEK293, read-out: OR13a Average response (VUAA1-normalized), 10 μM VOC, 50 μM VUAA1 = 1, responses not exceeding 0.05 considered 0): 4%
activation at 100 µM (Drosophila OR13a; HEK293, read-out: OR13a Average response (VUAA1-normalized), 100 μM VOC, 50 μM VUAA1 = 1, responses not exceeding 0.05 considered 0): 0%
activation at 1 µM (Drosophila OR13a; HEK293, read-out: OR13a response (VUAA1-normalized response), VOC concentration 1 μM): 0%
activation at 10 µM (Drosophila OR13a; HEK293, read-out: OR13a response (VUAA1-normalized response), VOC concentration 10 μM): 0%
activation at 100 µM (Drosophila OR13a; HEK293, read-out: OR13a response (VUAA1-normalized response), VOC concentration 100 μM): 0%
DF norm AVERAGE OR13a (Drosophila OR13a; [1]): 0
DF norm AVERAGE OR13a (Drosophila OR13a; [2]): 0
DF norm AVERAGE OR13a (Drosophila OR13a; [3]): 0

C=C(C)[C@H]1CC=C(C)CC1 [limonene]
OR10a Average response (VUAA1-normalized) (Drosophila OR10a; [4]): 0.00
OR10a Average response (VUAA1-normalized) (Drosophila OR10a; [5]): 0.00
OR10a Average response (VUAA1-normalized) (Drosophila OR10a; [6]): 0.06
OR10a response (VUAA1-normalized response) (Drosophila OR10a; VOC concentration 1 μM): 0.00
OR10a response (VUAA1-normalized response) (Drosophila OR10a; VOC concentration 10 μM): 0.00
OR10a response (VUAA1-normalized response) (Drosophila OR10a; VOC concentration 100 μM): 0.06
DF norm AVERAGE OR10a (Drosophila OR10a; [1]): 0
DF norm AVERAGE OR10a (Drosophila OR10a; [2]): 0
DF norm AVERAGE OR10a (Drosophila OR10a; [3]): 0.05729
OR13a Average response (VUAA1-normalized) (Drosophila OR13a; [4]): 0.00
OR13a Average response (VUAA1-normalized) (Drosophila OR13a; [5]): 0.00
OR13a Average response (VUAA1-normalized) (Drosophila OR13a; [6]): 0.00
OR13a response (VUAA1-normalized response) (Drosophila OR13a; VOC concentration 1 μM): 0.00
OR13a response (VUAA1-normalized response) (Drosophila OR13a; VOC concentration 10 μM): 0.00
OR13a response (VUAA1-normalized response) (Drosophila OR13a; VOC concentration 100 μM): 0.00
DF norm AVERAGE OR13a (Drosophila OR13a; [1]): 0
DF norm AVERAGE OR13a (Drosophila OR13a; [2]): 0
DF norm AVERAGE OR13a (Drosophila OR13a; [3]): 0
